Tested on: NF1-associated plexiform neurofibromas (PNs)
Assay: Phase 2b trial of mirdametinib: efficacy by volumetric MRI per REiNS criteria (BICR)
Type: in vivo, human
Details: for DoR ≥12 months, %: responders, first DoR line (r12)
Description: Study treatment was administered orally at a twice daily (BID) dose specified in the table below. Dosing was on a 28-day Cycle (4-week course) with a 3 week on/1 week off schedule. The treatment period will last for up to 24 Cycles followed by a 30-day Safety Follow-Up period.
A partial response was defined as PN decrease ≥20% compared to baseline using centrally read MRI volumetric analysis.
The major efficacy outcome measure was confirmed objective response rate (ORR), defined as the percentage of patients with complete response (disappearance of the target PN) or confirmed partial response (≥20% reduction in PN volume confirmed at a subsequent tumor assessment within 2-6 months during the 24-cycle treatment phase). Responses were assessed by blinded independent central review (BICR) using volumetric magnetic resonance imaging (MRI) analysis per Response Evaluation in Neurofibromatosis and Schwannomatosis (REiNS) criteria. A secondary efficacy objective was to determine the duration of response for patients who achieved a confirmed objective response.

SMILES: O=C(NOC[C@H](O)CO)c1ccc(F)c(F)c1Nc1ccc(I)cc1F (single isomer, unassigned) [mirdametinib]
- Confirmed Complete Response, n (%) (Adult (N = 58)): 0
- Confirmed Objective Response Rate per REINS criteria by BICR, (%) (Adult (N = 58)): (41) %
- Confirmed Partial Response, (%) (Adult (N = 58)): (41) %
- DoR ≥12 months, % (Adult): (88%)
- Confirmed Complete Response, n (%) (Pediatric (N = 56)): 0
- Confirmed Objective Response Rate per REINS criteria by BICR, (%) (Pediatric (N = 56)): (52) %
- Confirmed Partial Response, (%) (Pediatric (N = 56)): (52) %
- DoR ≥12 months, % (Pediatric): (90%)

Reference: US20250387355A1 (SpringWorks Therapeutics Inc., priority 2024, published 2025)
